This passage reports IC50, EC50 and Drug uptake results from ChEMBL document CHEMBL3407357, “Inhibiting the deubiquitinating enzymes (DUBs)” (J Med Chem, 2015).

For experiment [1], the target named is Ubiquitin carboxyl-terminal hydrolase 10 (Homo sapiens, UniProt Q14694). Nature of the experiment: Inhibition of USP10 (unknown origin) by Ub-AMC assay.
For experiment [2], the target named is T1, Ubiquitin carboxyl-terminal hydrolase 13 (Homo sapiens, UniProt Q92995).
T1 sequence (Q92995 whole entry): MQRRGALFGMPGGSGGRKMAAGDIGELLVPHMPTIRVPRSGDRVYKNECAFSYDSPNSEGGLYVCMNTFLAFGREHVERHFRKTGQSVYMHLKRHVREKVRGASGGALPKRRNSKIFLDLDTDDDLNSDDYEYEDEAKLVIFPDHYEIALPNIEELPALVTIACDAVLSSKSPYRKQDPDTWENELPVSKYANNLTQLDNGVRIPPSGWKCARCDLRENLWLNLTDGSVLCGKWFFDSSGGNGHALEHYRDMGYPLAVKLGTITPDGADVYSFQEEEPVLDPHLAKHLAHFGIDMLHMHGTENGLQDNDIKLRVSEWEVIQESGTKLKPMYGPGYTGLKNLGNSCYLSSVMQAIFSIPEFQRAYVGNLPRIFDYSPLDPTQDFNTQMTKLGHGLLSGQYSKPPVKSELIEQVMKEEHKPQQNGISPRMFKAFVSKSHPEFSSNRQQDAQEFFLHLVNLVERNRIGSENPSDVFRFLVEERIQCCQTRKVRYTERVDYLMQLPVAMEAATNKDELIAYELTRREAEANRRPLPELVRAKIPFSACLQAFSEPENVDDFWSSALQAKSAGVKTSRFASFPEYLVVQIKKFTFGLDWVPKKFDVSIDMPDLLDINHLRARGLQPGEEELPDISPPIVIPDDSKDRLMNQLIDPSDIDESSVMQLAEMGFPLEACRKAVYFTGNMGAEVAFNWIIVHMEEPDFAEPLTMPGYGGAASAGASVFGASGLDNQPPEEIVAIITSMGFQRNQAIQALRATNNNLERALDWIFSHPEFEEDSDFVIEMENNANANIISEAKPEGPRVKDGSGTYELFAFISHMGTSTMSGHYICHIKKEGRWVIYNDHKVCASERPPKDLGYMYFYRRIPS
Nature of the experiment: Inhibition of USP13 (unknown origin) by Ub-AMC assay.

Experiment [3] addresses T2, Ubiquitin carboxyl-terminal hydrolase 7 (Homo sapiens, UniProt Q93009). The experiment is described as follows: Inhibition of USP7 in multiple myeloma cells (unknown origin) by immunohistochemistry. The experiment is classed as cell-based.
The target in experiment [4] is T2, Ubiquitin carboxyl-terminal hydrolase 7. Nature of the experiment: Inhibition of USP7 (unknown origin) by Ub-AMC assay.
Experiment [5] can be described thus: Steady state intracellular drug concentration after 1 hr by LC-MS and UV spectroscopy by cell based assay.
For experiment [6], the target named is T2, Ubiquitin carboxyl-terminal hydrolase 7. The experiment is described as follows: Inhibition of USP7 (unknown origin) by Ub-CHOP reporter assay. For orientation: Reporter assays use an easily measured gene product as a stand-in for the process of interest.
Experiment [7] addresses T3, Ubiquitin carboxyl-terminal hydrolase 1 (Homo sapiens, UniProt O94782).
T3 sequence (O94782 whole entry): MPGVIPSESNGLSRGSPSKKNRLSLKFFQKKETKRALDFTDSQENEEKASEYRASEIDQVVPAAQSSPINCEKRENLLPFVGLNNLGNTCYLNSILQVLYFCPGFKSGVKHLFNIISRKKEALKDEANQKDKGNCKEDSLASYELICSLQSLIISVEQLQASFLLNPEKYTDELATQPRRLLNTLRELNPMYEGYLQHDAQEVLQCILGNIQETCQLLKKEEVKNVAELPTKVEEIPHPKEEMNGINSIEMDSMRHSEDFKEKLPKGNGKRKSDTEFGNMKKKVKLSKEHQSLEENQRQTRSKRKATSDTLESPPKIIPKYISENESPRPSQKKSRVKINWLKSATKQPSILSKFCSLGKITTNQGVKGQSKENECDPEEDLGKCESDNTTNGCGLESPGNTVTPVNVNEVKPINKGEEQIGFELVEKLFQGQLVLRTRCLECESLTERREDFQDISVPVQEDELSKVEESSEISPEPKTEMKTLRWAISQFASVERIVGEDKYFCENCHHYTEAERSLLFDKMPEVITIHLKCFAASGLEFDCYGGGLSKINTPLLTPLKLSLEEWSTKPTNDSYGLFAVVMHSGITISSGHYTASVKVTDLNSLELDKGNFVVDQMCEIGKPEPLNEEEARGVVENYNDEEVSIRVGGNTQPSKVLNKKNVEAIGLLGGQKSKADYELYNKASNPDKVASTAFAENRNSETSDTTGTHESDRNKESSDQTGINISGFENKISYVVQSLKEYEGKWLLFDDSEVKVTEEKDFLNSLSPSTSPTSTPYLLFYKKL
The experiment is described as follows: Inhibition of USP1 (unknown origin) by Ub-AMC assay.

For orientation: IC50 means the concentration needed to halve the response being measured. The low end stands for inhibition by little substance, the high end for a need for much substance. In general, EC50 refers to the concentration at which the effect is half-maximal. Higher therefore signals lower potency in that assay.

T2 sequence (Q93009 whole entry): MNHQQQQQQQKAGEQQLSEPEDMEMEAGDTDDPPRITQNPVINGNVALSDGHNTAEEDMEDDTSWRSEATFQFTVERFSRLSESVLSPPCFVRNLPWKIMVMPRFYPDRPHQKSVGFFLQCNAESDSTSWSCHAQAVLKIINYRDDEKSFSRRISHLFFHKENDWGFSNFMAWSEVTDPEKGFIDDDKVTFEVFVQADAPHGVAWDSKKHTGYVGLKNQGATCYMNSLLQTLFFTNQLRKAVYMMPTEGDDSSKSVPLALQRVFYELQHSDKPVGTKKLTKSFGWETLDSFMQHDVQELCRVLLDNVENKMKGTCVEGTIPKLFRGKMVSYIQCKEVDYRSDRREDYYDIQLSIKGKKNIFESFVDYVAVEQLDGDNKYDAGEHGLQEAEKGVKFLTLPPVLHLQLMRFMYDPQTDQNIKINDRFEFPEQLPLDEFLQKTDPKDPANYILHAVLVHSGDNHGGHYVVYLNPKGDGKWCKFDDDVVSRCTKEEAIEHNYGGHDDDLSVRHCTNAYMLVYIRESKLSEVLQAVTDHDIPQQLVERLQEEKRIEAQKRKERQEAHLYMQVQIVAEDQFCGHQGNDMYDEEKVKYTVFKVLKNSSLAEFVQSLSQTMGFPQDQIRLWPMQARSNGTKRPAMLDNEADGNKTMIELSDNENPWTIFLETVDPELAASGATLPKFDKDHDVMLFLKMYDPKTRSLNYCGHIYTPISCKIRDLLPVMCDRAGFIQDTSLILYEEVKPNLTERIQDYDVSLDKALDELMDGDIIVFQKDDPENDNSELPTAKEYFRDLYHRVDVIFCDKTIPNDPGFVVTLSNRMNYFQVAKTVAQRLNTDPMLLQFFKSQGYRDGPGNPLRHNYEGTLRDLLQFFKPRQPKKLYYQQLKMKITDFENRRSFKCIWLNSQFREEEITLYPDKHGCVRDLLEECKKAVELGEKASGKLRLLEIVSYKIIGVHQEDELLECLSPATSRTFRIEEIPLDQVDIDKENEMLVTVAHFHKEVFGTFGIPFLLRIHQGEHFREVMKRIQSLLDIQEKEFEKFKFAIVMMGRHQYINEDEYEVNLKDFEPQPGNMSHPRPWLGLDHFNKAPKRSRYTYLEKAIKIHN
Sequence of Ubiquitin carboxyl-terminal hydrolase 10 (Q14694 whole entry): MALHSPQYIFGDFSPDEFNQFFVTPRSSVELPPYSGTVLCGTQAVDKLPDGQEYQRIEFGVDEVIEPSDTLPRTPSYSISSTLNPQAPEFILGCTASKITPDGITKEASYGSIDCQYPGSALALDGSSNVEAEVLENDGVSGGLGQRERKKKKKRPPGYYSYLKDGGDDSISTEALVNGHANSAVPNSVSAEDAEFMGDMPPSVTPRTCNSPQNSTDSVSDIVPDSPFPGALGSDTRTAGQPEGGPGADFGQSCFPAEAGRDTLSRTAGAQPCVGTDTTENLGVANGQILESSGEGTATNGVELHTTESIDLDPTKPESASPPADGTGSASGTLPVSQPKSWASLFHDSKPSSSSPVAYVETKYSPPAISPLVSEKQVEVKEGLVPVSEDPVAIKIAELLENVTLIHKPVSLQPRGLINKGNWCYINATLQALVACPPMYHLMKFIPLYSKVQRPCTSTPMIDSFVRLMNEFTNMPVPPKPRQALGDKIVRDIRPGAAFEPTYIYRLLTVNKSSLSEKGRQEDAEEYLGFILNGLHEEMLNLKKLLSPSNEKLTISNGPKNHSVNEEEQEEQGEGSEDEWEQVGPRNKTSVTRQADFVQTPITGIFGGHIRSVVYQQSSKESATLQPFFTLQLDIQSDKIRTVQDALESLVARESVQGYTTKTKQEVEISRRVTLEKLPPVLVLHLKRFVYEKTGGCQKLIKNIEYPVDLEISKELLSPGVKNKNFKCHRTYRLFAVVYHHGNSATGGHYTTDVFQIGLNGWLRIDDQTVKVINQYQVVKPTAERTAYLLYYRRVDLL

As to `Fc1ccc(CNc2ncnc3ccc(F)cc23)cc1`, the IC50 in experiment [1] and in experiment [2] was 600 nM throughout. As for `O=[N+]([O-])c1cc(CCO)sc1Sc1cccc(Cl)c1Cl`, in experiment [3], the response was half-maximal at 20100 nM (EC50). In experiment [4], `N#Cc1nc2c(nc1C#N)-c1cc(Cl)ccc1C2=O` returned an IC50 of 420 nM. For the compound `Cc1cc(C(=O)CN2CCCC2)c(C)n1-c1ccc(F)cc1`, in experiment [5], the Drug uptake was 13 µM. As for `CC(=O)c1cc([N+](=O)[O-])c(Sc2cccc(Cl)c2Cl)s1`, in experiment [6], the response was half-maximal at 8000 nM (EC50). Regarding `O=C1c2ccccc2C(=O)c2oc(-c3ccccc3)nc21`, half-maximal inhibition in experiment [7] (IC50) was put at 544 nM.
